In US9630947B2, “Therapeutic compounds and related methods of use” (OTSUKA PHARMACEUTICAL CO., LTD., priority 2009, dated 2017):

Biological target: T1, purified STEP46 enzyme (Homo sapiens, UniProt P54829)
T1 sequence (P54829 1-565): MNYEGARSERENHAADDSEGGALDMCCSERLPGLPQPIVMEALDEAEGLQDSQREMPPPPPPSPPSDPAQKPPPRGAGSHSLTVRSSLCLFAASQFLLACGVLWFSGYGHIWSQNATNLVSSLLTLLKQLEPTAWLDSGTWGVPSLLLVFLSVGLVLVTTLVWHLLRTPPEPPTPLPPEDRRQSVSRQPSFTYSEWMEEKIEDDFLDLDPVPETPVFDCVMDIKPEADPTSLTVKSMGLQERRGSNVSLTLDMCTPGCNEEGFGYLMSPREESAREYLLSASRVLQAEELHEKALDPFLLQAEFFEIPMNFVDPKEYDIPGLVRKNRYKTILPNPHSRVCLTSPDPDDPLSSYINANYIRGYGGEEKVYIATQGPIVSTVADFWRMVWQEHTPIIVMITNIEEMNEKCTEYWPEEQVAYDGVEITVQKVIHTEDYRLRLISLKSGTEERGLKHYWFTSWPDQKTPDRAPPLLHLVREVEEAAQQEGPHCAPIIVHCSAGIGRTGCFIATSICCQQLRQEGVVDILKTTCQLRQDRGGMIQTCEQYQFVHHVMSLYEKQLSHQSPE
Experiment: STEP46 biochemical assay (DiFMUP fluorescence phosphatase assay)
Conditions: DiFMUP 10 μM, read-out: STEP IC50
Procedure, shortened: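 Compounds preincubated 30 min at room temperature with purified STEP46 (1 ng/well) in 50 mM Hepes, 1 mM DTT, 0.02% Brij35, then 10 μM DiFMUP (final) added for 90 min at 27 °C; 2% DMSO, fluorescence at 360/460 nm. IC50 from four-parameter fit of % inhibition; activators reported as negative % inhibition at 25, 50 and 100 uM.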

SMILES | IC50 [nM]
CNc1nc(-c2cccnc2)nc2ccc(-c3ccc(F)cc3F)cc12 [Compound 1611] | 1000 to 10000
COc1ccc2nc(-c3cccnc3)nc(Nc3cccc4c3OC(F)(F)O4)c2c1 [Compound 339] | 1000 to 10000
CN(C)c1nc(-c2cccnc2)nc2cc(-c3cc(F)ccc3F)ccc12 [Compound 1396] | 1000 to 10000
NC(=O)c1ccccc1Nc1nc(-c2cnccn2)nc2ccc(Cl)cc12 [Compound 1157] | 1000 to 10000
NC(=O)c1ccccc1Nc1nc(-c2cccnc2)nc2cc(-c3ccc(F)cc3F)ccc12 [Compound 704] | < 1000
COc1ccc2nc(-c3cncnc3)nc(Nc3ccccc3C(N)=O)c2c1 [Compound 1172] | 1000 to 10000
NC(=O)c1ccccc1-c1ccc2c(Nc3ccc(F)c(Cl)c3)nc(-c3cccnc3)nc2c1 [Compound 683] | 1000 to 10000
Fc1ccc(Nc2nc(-c3cnccn3)nc3ccc(Cl)cc23)cc1Cl [Compound 1159] | 1000 to 10000
Cc1cccc2c(Nc3ccc(F)c(Cl)c3)nc(-c3cnccn3)nc12 [Compound 1176] | 1000 to 10000
NC(=O)c1ccccc1Nc1nc(-c2cccnc2)nc2cc(Br)ccc12 [Compound 699] | < 1000
CNc1nc(-c2cccnc2)nc2c(C)c(-c3cc(F)cc(F)c3)ccc12 [Compound 1448] | 1000 to 10000
Cc1cccc2c(Nc3cccc(OC(F)F)c3)nc(-c3ccnnc3)nc12 [Compound 1168] | 1000 to 10000
CCOc1ccc2nc(-c3cccnc3)nc(Nc3ccc4c(c3)NC(=O)CC4)c2c1 [Compound 337] | < 1000
N#Cc1cccc(Nc2nc(-c3cnccn3)nc3cc(Cl)ccc23)c1 [Compound 1144] | 1000 to 10000
COc1ccc2nc(-c3cccnc3)nc(Nc3ccc(F)cc3Cl)c2c1 [Compound 933] | 1000 to 10000
Cc1cc(Cl)cc2c(Nc3cccc(C#N)c3)nc(-c3cnccn3)nc12 [Compound 1228] | 1000 to 10000
COc1ccc2nc(-c3cccnc3)nc(Nc3nc(-c4cccc(F)c4)cs3)c2c1 [Compound 441] | 1000 to 10000
COc1ccc2nc(-c3cccnc3)nc(Nc3nc(-c4ccc(C(F)(F)F)cc4)cs3)c2c1 [Compound 443] | < 1000
N#Cc1cccc(-c2ccc3c(Nc4ccc(F)c(Cl)c4)nc(-c4cccnc4)nc3c2)c1 [Compound 686] | < 1000
COc1ccc2nc(-c3cccnc3)nc(Nc3ccc(C)c(C)c3)c2c1 [Compound 923] | 1000 to 10000
CNc1nc(-c2cccnc2)nc2ccc(-c3cccc(OCCOC)c3)cc12 [Compound 1680, 6-(3-(2-methoxyethoxyl)phenyl)-N-methyl-2-(pyridin-3-yl)quinazolin-4-amine] | 1000 to 10000
CCOc1ccc2nc(-c3cccnc3)nc(Nc3nc(-c4ccc(Cl)cc4)cs3)c2c1 [Compound 467] | 1000 to 10000
COc1ncc(-c2ccc3nc(-c4cccnc4)nc(Nc4ccc(F)c(Cl)c4)c3c2)c(OC)n1 [Compound 653] | < 1000
CNc1nc(-c2cccnc2)nc2cc(-c3ccccc3F)c(C)cc12 [Compound 1403] | > 10000
CNc1nc(-c2cccnc2)nc2ccc(-c3cccc4sccc34)cc12 [Compound 1340] | 1000 to 10000

SMILES | IC50 [nM]
CN(C)c1ccc2nc(-c3ccnnc3)nc(Nc3cccc(OC(F)F)c3)c2c1 [Compound 1153] | 1000 to 10000
N#Cc1cccc(Nc2nc(-c3ccnnc3)nc3cc(Cl)ccc23)c1 [Compound 1203] | 1000 to 10000
CNC(=O)c1sc(Nc2nc(-c3cccnc3)nc3ccc(OC)cc23)nc1-c1ccccc1 [Compound 1124, 2-(6-methoxy-2-(pyridin-3-yl)quinazolin-4-ylamino)-N-methyl-4-phenylthiazole-5-carboxamide] | < 1000
CNc1nc(-c2cccnc2)nc2c(C)c(-c3ccc(F)cc3)ccc12 [Compound 1447] | > 10000
COc1ccc2nc(-c3ccnnc3)nc(Nc3ccc(F)c(Cl)c3)c2c1 [Compound 1185] | 1000 to 10000
COc1ccc2nc(-c3cccnc3)nc(Nc3ccccc3C(=O)NCCC(F)(F)F)c2c1 [Compound 899] | 1000 to 10000
COc1ccc2nc(-c3cccnc3)nc(Nc3nc(-c4ccccc4)cs3)c2c1 [Compound 416] | < 1000
COc1ccc2nc(-c3cccnc3)nc(Nc3ccc4c(c3)OCCO4)c2c1 [Compound 297] | > 10000
CNc1nc(-c2ccnnc2)nc2ccc(-c3cccc(F)c3F)cc12 [Compound 1237] | 1000 to 10000
CNc1nc(-c2cccnc2)nc2c(C)c(-c3ccc(OC)cc3)ccc12 [Compound 1455] | 1000 to 10000
CNc1nc(-c2cccnc2)nc2ccc(-c3ccc(F)c(C(F)(F)F)c3)cc12 [Compound 1401] | 1000 to 10000
COc1ccc2nc(-c3cccnc3)nc(Nc3ccc4nonc4c3)c2c1 [Compound 332] | < 1000
Cc1cc(Cl)cc2c(Nc3ccc(F)c(Cl)c3)nc(-c3cnccn3)nc12 [Compound 1225] | 1000 to 10000
COc1ccc2nc(-c3cccnc3)nc(Nc3cccc(Br)c3)c2c1 [Compound 425] | 1000 to 10000
CNc1c(-c2ccc(C#N)cc2)ccc2nc(-c3cccnc3)nc(C)c12 [Compound 1424] | > 10000
COc1ccc2nc(-c3cccnc3)nc(Nc3ccc4c(C)cc(=O)oc4c3)c2c1 [Compound 316] | < 1000
N#Cc1cccc(Nc2nc(-c3cnccn3)nc3ccc(Cl)cc23)c1 [Compound 1158] | 1000 to 10000
NC(=O)c1ccccc1Nc1nc(-c2cccnc2)nc2cc(-c3ccc(F)cc3)ccc12 [Compound 701] | 1000 to 10000
COc1ccc2nc(-c3cccnc3)nc(Nc3nc(-c4ccc(OC(F)(F)F)cc4)cs3)c2c1 [Compound 442] | < 1000
CNc1nc(-c2cccnc2)nc2cc(-c3ccccc3OC)c(C)cc12 [Compound 1411] | > 10000
CN(C)c1ccc(-c2ccc3nc(-c4cccnc4)nc(Nc4ccc(F)c(Cl)c4)c3c2)cc1 [Compound 668] | < 1000
COc1ccc2nc(-c3cccnc3)nc(Nc3cccc4c3OC(F)(F)C(F)(F)O4)c2c1 [Compound 342] | 1000 to 10000
COc1ccc(-c2csc(Nc3nc(-c4cccnc4)nc4ccc(OC)cc34)n2)cc1 [Compound 435] | < 1000
CNc1nc(-c2cccnc2)nc2c(C)c(-c3cccc(F)c3F)ccc12 [Compound 1451] | 1000 to 10000
N#Cc1ccccc1-c1ccc2nc(-c3cccnc3)nc(Nc3ccc(F)c(Cl)c3)c2c1 [Compound 639] | < 1000

SMILES | IC50 [nM]
COc1ccc2nc(-c3cccnc3)nc(Nc3nc(-c4cccc(Cl)c4)cs3)c2c1 [Compound 430] | < 1000
COc1ccc2nc(-c3cccnc3)nc(Nc3nc(-c4cccc(C)c4)cs3)c2c1 [Compound 440] | 1000 to 10000
Cc1cc(Cl)cc2c(Nc3ccccc3C(=O)O)nc(-c3cnccn3)nc12 [Compound 1227] | 1000 to 10000
COc1ccc2nc(-c3cccnc3)nc(Nc3ccc4ccoc4c3)c2c1 [Compound 314] | 1000 to 10000
CNc1nc(-c2cccnc2)nc2cc(C)c(-c3cccc(OC)c3)cc12 [Compound 1419] | 1000 to 10000
CNc1nc(-c2cccnc2)nc2c(C)cc(-c3cccc(C#N)c3)cc12 [Compound 1281] | < 1000
Clc1ccc2nc(-c3cnccn3)nc(Nc3ccc(Cl)c(Cl)c3)c2c1 [Compound 1160] | 1000 to 10000
FC1(F)Oc2ccc(Nc3nc(-c4cccnc4)nc4ccc(-c5cccnc5)cc34)cc2O1 [Compound 312] | < 1000
COc1ccc2nc(-c3cccnc3)nc(Nc3nc(-c4ccc(F)cc4F)cs3)c2c1 [Compound 446] | 1000 to 10000
Cc1cc(Cl)cc2c(Nc3cccc(OC(F)F)c3)nc(-c3ccnnc3)nc12 [Compound 1165] | < 1000
Fc1ccc(Nc2nc(-c3cnccn3)nc3cc(Cl)ccc23)cc1Cl [Compound 1141] | < 1000
NC(=O)c1ccc(-c2ccc3c(Nc4ccc(F)c(Cl)c4)nc(-c4cccnc4)nc3c2)cc1 [Compound 684] | 1000 to 10000
COc1ccc2nc(-c3cccnc3)nc(Nc3ccc4oc(=O)n(C)c4c3)c2c1 [Compound 318] | 1000 to 10000
COc1ccc2nc(-c3cccnc3)nc(Nc3nc(-c4ccccc4Cl)cs3)c2c1 [Compound 431] | < 1000
CNc1nc(-c2cccnc2)nc2ccc(-c3ccc4c(cnn4C)c3)cc12 [Compound 1366] | 1000 to 10000
CNc1nc(-c2cccnc2)nc2c(C)c(-c3cccc(OC)c3)ccc12 [Compound 1456] | 1000 to 10000
Fc1ccc(Nc2nc(-c3cccnc3)nc3cc(-c4cncnc4)ccc23)cc1Cl [Compound 678] | 1000 to 10000
CNc1nc(-c2cccnc2)nc2cc(C)c(-c3ccc(F)cc3)cc12 [Compound 1414] | 1000 to 10000
CNc1nc(-c2cccnc2)nc2ccc(-c3cc(OC)ccc3F)cc12 [Compound 1400] | 1000 to 10000
CNc1nc(-c2cccnc2)nc2cc(-c3cc(F)cc(F)c3)c(C)cc12 [Compound 1408] | 1000 to 10000
CN(C)c1nc(-c2cccnc2)nc2ccc(-c3cccc([N+](=O)[O-])c3)cc12 [Compound 1335] | 1000 to 10000
CNc1nc(-c2cccnc2)nc2ccc(-c3ccc(F)c(F)c3F)cc12 [Compound 1375] | 1000 to 10000
Clc1ccc2c(Nc3ccc(Cl)c(Cl)c3)nc(-c3ccnnc3)nc2c1 [Compound 1204] | > 10000
